The test system of one experiment is MDA-MB-468. Nature of the experiment: Antiproliferative activity against human MDA-MB-468 cells assessed as reduction in cell viability measured after 72 hrs by MTS assay. The class given is functional, cell-based. As to conditions: for pIC50: Homo sapiens, MDA-MB-468, 72 h, read-out: IC50; for IC50: mda-mb-468. On the technique in general: Tetrazolium assays rely on reduction of a dye to a coloured formazan, in cell work by metabolically active cells.

The subject of another experiment is MDA-MB-231. Briefly: Antiproliferative activity against human MDA-MB-231 cells assessed as reduction in cell viability measured after 72 hrs by MTS assay. The class given is functional, cell-based. To be noted: for pIC50: Homo sapiens, MDA-MB-231, 72 h, read-out: IC50; for IC50: mda-mb-231.
The species entered for experiment [1] is Capra hircus. Briefly: Binding affinity to goat tubulin assessed as increase in tubulin-colchicine fluorescence preincubated for 30 mins followed by colchicine addition measured after 60 mins by tryptophan fluorescence quenching assay.
Experiment [2] can be described thus: Binding affinity to goat tubulin by double reciprocal plot analysis. Further details: species or system Capra hircus.
The next experiment has as its system MCF7. Nature of the experiment: Antiproliferative activity against human MCF7 cells assessed as reduction in cell viability measured after 72 hrs by MTS assay. The class given is functional, cell-based. As to conditions: for pIC50: Homo sapiens, MCF7, 72 h, read-out: IC50; for IC50: mcf7.
The subject of another experiment is T47D. Nature of the experiment: Antiproliferative activity against human T47D cells assessed as reduction in cell viability measured after 72 hrs by MTS assay. Format: functional, cell-based. To be noted: for pIC50: Homo sapiens, T47D, 72 h, read-out: IC50; for IC50: t47d.
A further experiment has as its system A549. Briefly: Antiproliferative activity against human A549 cells assessed as reduction in cell viability measured after 72 hrs by MTS assay. To be noted: for pIC50: Homo sapiens, A549, 72 h, read-out: IC50; for IC50: a549. Format: functional, cell-based.
The species entered for experiment [3] is Capra hircus. Briefly: Binding affinity to goat tubulin by tryptophan fluorescence quenching assay.

pIC50, pKd: −log10 of the molar value. Calls of active or inactive are those of the source. The rule behind the calls is not given here.

By pIC50 is commonly meant the IC50 on a negative log10 scale, so that one unit is a factor of ten. The pKd is −log10 of the Kd, conventionally taken in molar units. For the molecule `COc1ccc(C2C3CCCC3=NN2S(C)(=O)=O)cc1` (centres undefined), the negative-log IC50 (pIC50) is 6.00 with MDA-MB-468; 5.06 in the experiment with MDA-MB-231; 4.80 in the experiment on MCF7; 6.10 in the experiment with T47D; 4.72 in the experiment with A549. Further, in the experiment listed under Capra hircus [1], the Activity entry is “Dose-dependent effect”. Also, the pKd in experiment [2] was 4.07.
`CS(=O)(=O)N1N=C2CCCC2C1c1ccc(F)cc1` (centres undefined): the pIC50 in the experiment with MDA-MB-468 is 4.15; with MDA-MB-231, 4.29; in the experiment with MCF7, 4.12; in the experiment with A549, 4.09. Besides, the Activity entry in the experiment filed under Capra hircus [1] was “Dose-dependent effect”. Moreover, the negative logarithm of the Kd (pKd) in experiment [2] is 3.90. Besides, the IC50 entry with T47D was “Not Active”.
Regarding `Fc1ccc(C2NN=C3CCCC32)cc1` (centres undefined), the negative logarithm of the IC50 (pIC50) with MDA-MB-468 was 4.83; in the experiment on MDA-MB-231, 4.51; in the experiment on MCF7, 4.42; in the experiment on T47D, 4.43; in the experiment on A549, 4.51.
Take `CC(C)c1ccc(C2C3CCCC3=NN2S(C)(=O)=O)cc1` (centres undefined): in the experiment on MDA-MB-468, the negative logarithm of the IC50 (pIC50) was 3.92. For the same molecule, the IC50 entry with MDA-MB-231, in the experiment on MCF7, with T47D and with A549 was “Not Active” each time.
On to `O=[N+]([O-])c1ccc(S(=O)(=O)N2N=C3CCCC3C2c2ccc(Cl)cc2)cc1` (centres undefined), for which the negative logarithm of the IC50 (pIC50) in the experiment with MDA-MB-468 is 4.36; in the experiment with MDA-MB-231 it was 4.37. In addition, the IC50 result in the experiment on MCF7, in the experiment on T47D and in the experiment on A549 was “Not Active” in each case.
`Cc1ccc(S(=O)(=O)N2N=C3CCCC3C2c2ccc(F)cc2)cc1` (centres undefined): the pIC50 in the experiment on MDA-MB-468 was 5.42; in the experiment with MDA-MB-231, 5.96; with MCF7, 4.30; with T47D it was 5.48; in the experiment on A549 it was 5.24. Moreover, in the experiment filed under Capra hircus [3], the result was Active.
For `COc1ccc(C2NN=C3CCCC32)cc1` (centres undefined), the pIC50 in the experiment with MDA-MB-468 is 4.70; with MCF7, 4.62; in the experiment with A549 it was 4.35. Besides, the IC50 entry with MDA-MB-231 and in the experiment with T47D was “Not Active” in each case.
On to `CC(=O)O[C@H]1C(=O)[C@@]2(C)[C@H]([C@H](OC(=O)c3ccccc3)[C@]3(O)C[C@H](OC(=O)[C@H](O)[C@@H](NC(=O)c4ccccc4)c4ccccc4)C(C)=C1C3(C)C)[C@]1(OC(C)=O)CO[C@@H]1C[C@@H]2O` [PACLITAXEL], for which the negative logarithm of the IC50 (pIC50) was 6.70 in the experiment with MDA-MB-468, 7.00 with MDA-MB-231, 7.00 in the experiment on MCF7 and 6.70 in the experiment on T47D.
`CC(C)c1ccc(C2C3CCCC3=NN2S(=O)(=O)c2ccc([N+](=O)[O-])cc2)cc1` (centres undefined): in the experiment with MDA-MB-468, the pIC50 was 4.55. For the same molecule, the IC50 result in the experiment with MDA-MB-231, in the experiment with MCF7, in the experiment with T47D and with A549 was “Not Active” each time.
Regarding `Clc1ccc(C2NN=C3CCCC32)cc1` (centres undefined), the negative-log IC50 (pIC50) with MDA-MB-468 was 4.99; with MDA-MB-231, 4.60; in the experiment with MCF7 it was 4.29; with T47D, 4.53; with A549, 4.32.
`O=S(=O)(c1ccc(Cl)cc1)N1N=C2CCCC2C1c1ccc(F)cc1` (centres undefined): the IC50 result in the experiment on MDA-MB-468, in the experiment on MCF7 and in the experiment with A549 was “Not Active” each time. For the same molecule, the negative logarithm of the IC50 (pIC50) in the experiment with MDA-MB-231 is 5.03; in the experiment on T47D, 4.05.
Turning to `Cc1ccc(S(=O)(=O)N2N=C3CCCC3C2c2ccc(C(C)C)cc2)cc1` (centres undefined), the values for the pIC50 in the experiment with MDA-MB-468, in the experiment on MDA-MB-231 and in the experiment on T47D were 5.10, 4.81 and 4.39, respectively. The IC50 entry with MCF7 and in the experiment with A549 was “Not Active” each time.
For the molecule `CC(C)c1ccc(C2NN=C3CCCC32)cc1` (centres undefined), the negative logarithm of the IC50 (pIC50) with MDA-MB-468 is 3.73; with MDA-MB-231 it was 3.84; in the experiment with T47D, 3.89. Also, the IC50 entry in the experiment with MCF7 and in the experiment with A549 was “Not Active” each time.
Turning to `CC(C)c1ccc(C2C3CCCC3=NN2S(=O)(=O)c2ccc(Cl)cc2)cc1` (centres undefined), in the experiment with MDA-MB-468, the pIC50 was 4.81. For the same molecule, the IC50 result with MDA-MB-231, in the experiment on MCF7, with T47D and in the experiment with A549 was “Not Active” each time.
In the case of `COc1ccc(C2C3CCCC3=NN2S(=O)(=O)c2ccc([N+](=O)[O-])cc2)cc1` (centres undefined), the IC50 entry in the experiment with MDA-MB-468, with MDA-MB-231, in the experiment with T47D and in the experiment with A549 was “Not Active” throughout. In the experiment with MCF7, the negative-log IC50 (pIC50) is 3.82.
For `COc1ccc(C2C3CCCC3=NN2S(=O)(=O)c2ccc(C)cc2)cc1` (centres undefined), the IC50 entry with MDA-MB-468, in the experiment on MDA-MB-231, with T47D and with A549 was “Not Active” throughout. Besides, the pIC50 in the experiment on MCF7 is 3.75.

These data come from ChEMBL document CHEMBL4425172, “Chemical synthesis, pharmacological evaluation and in silico analysis of new 2,3,3a,4,5,6-hexahydrocyclopenta[c]pyrazole derivatives as potential anti-mitotic agents” (Bioorg Med Chem Lett, 2016).
